For test [1], the system named is Aβ1-42. The test is described as follows: Measurement of Aβ1-42 in culture medium of 7W WT APP751 CHO cells by ELISA.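 As to Aβ1-42 (% of control): 5 µM test compound but RI-coded compounds at 10 µM for 24 hours.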 It counts as cell-based, Chinese hamster. The conditions noted are these: for activity at 5 µM: Cricetulus griseus, 5 μM test compound, CHO cells stably transfected with human APP751, culture medium, ELISA, control DMSO; for Aβ1-42 (% of control): CHO cells that overexpress APP751, zero = below the detection limit of the assay.

In test [2] the test system is Aβ1-40. Put plainly: Measurement of Aβ1-40 in culture medium of 7W WT APP751 CHO cells by ELISA.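 As to all read-outs here: 5 µM test compound but RI-coded compounds at 10 µM for 24 hours.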 It counts as cell-based, Chinese hamster. The conditions noted are these: for activity at 5 µM: Cricetulus griseus, 5 μM test compound, CHO cells stably transfected with human APP751, culture medium, ELISA, control DMSO; for Aβ1-40 (% of control): CHO cells that overexpress APP751, zero = below the detection limit of the assay.

[3] abbreviates: Table 1, 0 = no detectable amount, read-out: Aβ1-42 (% of control).
The mark [4] stands for this setting: Table 1, 0 = no detectable amount.

Where two headings read alike, the source gives them in different places.

Turning to `COc1ccc(C2C(C(=O)OC3CCCC3)=C(C)NC3=C2C(=O)CCC3)cc1Br` (stereo not drawn) [ST013137, cyclopentyl 4-(3-bromo-4-methoxyphenyl)-2-methyl-5-oxo-1,4,6,7,8-pentahydroquinoline-3-carboxylate], the activity at 5 µM in test [1] (setting [3]) was 30%; in test [2] (setting [4]) it was 18.7%.

With `CCOC(=O)C1=C(C)NC(C)=C(C(=O)OCC)C1C(=O)O` [ST007544, 3,5-bis(ethoxycarbonyl)-2,6-dimethyl-1,4-dihydropyridine-4-carboxylic acid], the activity at 5 µM in test [1] (Table 3, read-out: Aβ-42 (% of control)) amounted to 80.1%; in test [2] (Table 3), 78.7%.

For `CC1=C(C(=O)OCCOc2ccccc2)C(c2ccc(C(C)C)cc2)C2=C(CCCC2=O)N1` (stereo not drawn) [ST052247, 2-phenoxyethyl 2-methyl-4-[4-(methylethyl)phenyl]-5-oxo-1,4,6,7,8-pentahydroquinoline-3-carboxylate], the results for the activity at 5 µM in test [1] (setting [3]) and in test [2] (setting [4]) were 64.1% and 98%, respectively.

As for `CC1=C(C(=O)Nc2ccccc2)C(c2cccs2)C(C#N)=C(SCC(=O)Nc2ccccc2)N1` (stereo not drawn) [RI_66], the “Aβ1-42 (% of control)” value in test [1] is 23.6 % of control. For the same molecule, in test [2], the “Aβ1-40 (% of control)” value is 20.6 % of control.

For the molecule `CCc1ccc(C2C(C(=O)OCc3ccccc3)=C(C)NC3=C2C(=O)CC(c2ccccc2)C3)cc1` (stereo not drawn) [ST013390, phenylmethyl 4-(4-ethylphenyl)-2-methyl-5-oxo-7-phenyl-1,4,6,7,8-pentahydroquinoline-3-carboxylate], the activity at 5 µM in test [1] (setting [3]) turned out to be 98.3%; in test [2] (setting [4]) it was 23.4%.

Take `CCOC(=O)C1=C(C)NC2=C(C(=O)CCC2)C1c1ccc(OC)cc1OC` (stereo not drawn) [ST013213, ethyl 4-(2,4-dimethoxyphenyl)-2-methyl-5-oxo-1,4,6,7,8-pentahydroquinoline-3-carboxylate]: the activity at 5 µM in test [1] (setting [3]) came to 69.3%; in test [2] (setting [4]), 78.2%.

As to `CCCCCOC(=O)C1=C(C)NC2=C(C(=O)CC(C)(C)C2)C1c1ccccc1Br` (stereo not drawn) [ST216079, pentyl 4-(2-bromophenyl)-2,7,7-trimethyl-5-oxo-1,4,6,7,8-pentahydroquinoline-3-carboxylate], the results for the activity at 5 µM in test [1] (setting [3]) and in test [2] (setting [4]) were 20.5% and 25.8%, respectively.

Regarding `CSC1=C(C#N)C(c2ccccc2)C(C(=O)Nc2ccc(Cl)cc2)=C(C)N1` (stereo not drawn) [RI_5], the “Aβ1-42 (% of control)” value in test [1] is given as 82.2 % of control. For the same molecule, the “Aβ1-40 (% of control)” value in test [2] is 81.4 % of control.

As for `CCCCCOC(=O)C1=C(C)NC2=C(C(=O)CC(C)(C)C2)C1c1ccc([N+](=O)[O-])cc1` (stereo not drawn) [ST216093, pentyl 2,7,7-trimethyl-4-(4-nitrophenyl)-5-oxo-1,4,6,7,8-pentahydroquinoline-3-carboxylate], the activity at 5 µM in test [1] (setting [3]) and in test [2] (setting [4]) was 0% each time.

Consider `CCOC(=O)C1=C(C)NC2=C(C(=O)CC(c3ccc(OC)cc3)C2)C1c1ccc(OC)cc1` (stereo not drawn) [ST017136, ethyl 4,7-bis(4-methoxyphenyl)-2-methyl-5-oxo-1,4,6,7,8-pentahydroquinoline-3-carboxylate], for which the activity at 5 µM was determined as 66.1% in test [1] (setting [3]) and 87.7% in test [2] (setting [4]).

Consider `CCSCCOC(=O)C1=C(C)NC2=C(C(=O)CCC2)C1c1ccccc1Br` (stereo not drawn) [ST017199, 2-ethylthioethyl 4-(2-bromophenyl)-2-methyl-5-oxo-1,4,6,7,8-pentahydroquinoline-3-carboxylate], for which the activity at 5 µM came to 100% in test [1] (setting [3]) and 47.9% in test [2] (setting [4]).

For `CC1=C(C(=O)OCCc2ccccc2)C(c2ccccc2F)C2=C(CC(C)(C)CC2=O)N1` (stereo not drawn) [ST052225, 2-phenylethyl 4-(2-fluorophenyl)-2,7,7-trimethyl-5-oxo-1,4,6,7,8-pentahydroquinoline-3-carboxylate], the activity at 5 µM is 29.7% in test [1] (setting [3]) and 37.7% in test [2] (setting [4]).

Take `COC(=O)C1=C(C)NC2=C(C(=O)CCC2)C1c1cc(Br)c(O)c(OC)c1` (stereo not drawn) [ST013141, methyl 4-(3-bromo-4-hydroxy-5-methoxyphenyl)-2-methyl-5-oxo-1,4,6,7,8-pentahydroquinoline-3-carboxylate]: the activity at 5 µM was 23.7% in test [1] (setting [3]) and 89.7% in test [2] (setting [4]).

With `CC1=C(C(=O)Nc2ccccc2)C(c2cccs2)C(C#N)=C(SCC(=O)Nc2cccc(Cl)c2)N1` (stereo not drawn) [RI_69], the “Aβ1-42 (% of control)” value in test [1] is listed as 69.8 % of control. In addition, the “Aβ1-40 (% of control)” value in test [2] was 89.1 % of control.

As for `CCOc1cc(C2C(C(=O)OCc3ccccc3)=C(C)NC3=C2C(=O)CC(c2ccccc2)C3)ccc1O` (stereo not drawn) [ST017228, phenylmethyl 4-(3-ethoxy-4-hydroxyphenyl)-2-methyl-5-oxo-7-phenyl-1,4,6,7,8-pentahydroquinoline-3-carboxylate], the activity at 5 µM in test [1] (setting [3]) is 60.2%; in test [2] (setting [4]), 95.6%.

For the molecule `CC1=C(C(=O)OCc2ccccc2)C(c2cccs2)C2=C(CCCC2=O)N1` (stereo not drawn) [ST017233, phenylmethyl 2-methyl-5-oxo-4-(2-thienyl)-1,4,6,7,8-pentahydroquinoline-3-carboxylate], the activity at 5 µM came to 27.4% in test [1] (setting [3]) and 60.9% in test [2] (setting [4]).

In the case of `COc1ccc(COC(=O)C2=C(C)NC3=C(C(=O)CCC3)C2c2ccc(C(F)(F)F)cc2)cc1` (stereo not drawn) [ST052362, (4-methoxyphenyl)methyl 2-methyl-5-oxo-4-[4-(trifluoromethyl)phenyl]-1,4,6,7,8-pentahydroquinoline-3-carboxylate], the activity at 5 µM in test [1] (setting [3]) was 0%; in test [2] (setting [4]) it was 7.11%.

Regarding `COc1ccc(C2CC(=O)C3=C(C2)NC(C)=C(C(=O)OCc2ccccc2)C3c2cc(OC)c(OC)c(OC)c2)cc1` (stereo not drawn) [ST017244, phenylmethyl 7-(4-methoxyphenyl)-2-methyl-5-oxo-4-(3,4,5-trimethoxyphenyl)-1,4,6,7,8-pentahydroquinoline-3-carboxylate], the activity at 5 µM in test [1] (setting [3]) came out at 24.4%; in test [2] (setting [4]), 65.4%.

For `CCOC(=O)C1=C(C)N(c2nonc2NC(C)=O)C(N)=C(C#N)C1c1ccc(Cl)cc1Cl` (stereo not drawn) [ST026470, ethyl 1-[4-(acetylamino)(1,2,5-oxadiazol-3-yl)]-6-amino-4-(2,4-dichlorophenyl)-5-cyano-2-methyl-1,4-dihydropyridine-3-carboxylate], the “Aβ1-42 (% of control)” value in test [1] is on record as 67.48 % of control. Also, the “Aβ1-40 (% of control)” value in test [2] is 81.7 % of control.

As to `COc1ccc(C2C(C(=O)OCCc3ccccc3)=C(C)NC3=C2C(=O)CC(C)(C)C3)c(OC)c1` (stereo not drawn) [ST015090, 2-phenylethyl 4-(2,4-dimethoxyphenyl)-2,7,7-trimethyl-5-oxo-1,4,6,7,8-pentahydroquinoline-3-carboxylate], the activity at 5 µM in test [1] (setting [3]) was determined as 34.9%; in test [2] (setting [4]), 15.4%.

With `COc1cc(Br)ccc1/C=c1\sc2n(c1=O)C(N)=C(C#N)C(c1ccc(Br)cc1OC)C=2C#N` (stereo not drawn) [RI_94], in test [1], the “Aβ1-42 (% of control)” value is given as 81.2 % of control. In addition, in test [2], the “Aβ1-40 (% of control)” value was 73.2 % of control.

Take `COc1ccc(C2C(C(=O)OC3CCCC3)=C(C)NC3=C2C(=O)CC(C)(C)C3)c(OC)c1` (stereo not drawn) [ST013086, cyclopentyl 4-(2,4-dimethoxyphenyl)-2,7,7-trimethyl-5-oxo-1,4,6,7,8-pentahydroquinoline-3-carboxylate]: the results for the activity at 5 µM in test [1] (setting [3]) and in test [2] (setting [4]) were 73.7% and 0%, respectively.

For the molecule `CC1=C(C(=O)OCCc2ccccc2)C(c2ccccc2)C2=C(CC(C)(C)CC2=O)N1` (stereo not drawn) [ST015054, 2-phenylethyl 2,7,7-trimethyl-5-oxo-4-phenyl-1,4,6,7,8-pentahydroquinoline-3-carboxylate], the results for the activity at 5 µM in test [1] (setting [3]) and in test [2] (setting [4]) were 44.2% and 29.9%, respectively.

With `COc1ccc(C2C(C#N)=C(N)NC(C(C#N)C#N)=C2C#N)cc1OC` (stereo not drawn) [ST025482, 6-amino-2-(dicyanomethyl)-4-(3,4-dimethoxyphenyl)-1,4-dihydropyridine-3,5-dicarbonitrile], in test [1], the “Aβ1-42 (% of control)” value is 45.1 % of control. Besides, in test [2], the “Aβ1-40 (% of control)” value is given as 62.83 % of control.

Consider `COC(=O)C1=C(C)NC2=C(C(=O)CCC2)C1c1cc(OC)ccc1OC` (stereo not drawn) [ST013073, methyl 4-(2,5-dimethoxyphenyl)-2-methyl-5-oxo-1,4,6,7,8-pentahydroquinoline-3-carboxylate], for which the activity at 5 µM in test [1] (setting [3]) came out at 93.2%; in test [2] (setting [4]), 49.5%.

Regarding `COC(=O)C1=C(C)NC2=C(C(=O)CC(C)(C)C2)C1c1ccc(C(F)(F)F)cc1` (stereo not drawn) [ST052359, methyl 2,7,7-trimethyl-5-oxo-4-[4-(trifluoromethyl)phenyl]-1,4,6,7,8-pentahydroquinoline-3-carboxylate], the results for the activity at 5 µM in test [1] (setting [3]) and in test [2] (setting [4]) were 29.5% and 31%, respectively.

With `COC(=O)CSC1=C(C#N)C(c2cccs2)C(C(C)=O)=C(C)N1` (stereo not drawn) [ST014038, methyl 2-(5-acetyl-3-cyano-6-methyl-4-(2-thienyl)-2-1,4-dihydropyridylthio)acetate], in test [1], the “Aβ1-42 (% of control)” value is 21.82 % of control. The “Aβ1-40 (% of control)” value in test [2] is given as 29.98 % of control.

For the molecule `COC(=O)C1=C(C)NC2=C(C(=O)CCC2)C1c1cccc(C(F)(F)F)c1` (stereo not drawn) [ST052347, methyl 2-methyl-5-oxo-4-[3-(trifluoromethyl)phenyl]-1,4,6,7,8-pentahydroquinoline-3-carboxylate], the figures for the activity at 5 µM in test [1] (setting [3]) and in test [2] (setting [4]) were 64.3% and 57.2%, respectively.

For `CCc1ccc(C2C(C(=O)OCc3ccc(OC)cc3)=C(C)NC3=C2C(=O)CCC3)cc1` (stereo not drawn) [ST016983, (4-methoxyphenyl)methyl 4-(4-ethylphenyl)-2-methyl-5-oxo-1,4,6,7,8-pentahydroquinoline-3-carboxylate], the results for the activity at 5 µM in test [1] (setting [3]) and in test [2] (setting [4]) were 72.6% and 51.6%, respectively.

For `CC1=C(C(=O)OC(C)C)C(c2cccc(O)c2)C2=C(CCCC2=O)N1` (stereo not drawn) [ST013174, methylethyl 4-(3-hydroxyphenyl)-2-methyl-5-oxo-1,4,6,7,8-pentahydroquinoline-3-carboxylate], the activity at 5 µM stood at 73.1% in test [1] (setting [3]) and 34.3% in test [2] (setting [4]).

(Values after patent US20100119599A1 (ARCHER PHARMACEUTICALS, INC., priority 2006, published 2010).)
